Counter-ions that a name gives are not always drawn.
Columns and labels:
Human Thrombin = Human Thrombin (Homo sapiens, UniProt P00734); test: biochemical; conditions: read-out: Kass Human Thrombin (converted)
human or animal plasma [1] = test: Anticoagulation determination in plasma: activated partial thromboplastin time (APTT); assay type: biochemical; conditions: concentration doubling activated partial thromboplastin time
Procedure, shortened: (§1)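 Compounds spiked over a concentration range into citrated human, dog or rat plasma. PT used Thromboplastin-C; APTT used Actin reagent 120 s then 0.02 M CaCl2; TT used bovine thrombin 10 NIH units/mL. Concentration doubling clotting time estimated by linear extrapolation.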

in vivo = test: in vivo; set-up: species or system rats; conditions: for % oral/i.v. activity (Rat): screening not completed, activity after p.o. dose given in the legend; for bioavailability: plasma, rat, oral vs i.v.
Excerpt: Each sample population represented alternating sequential time points.

factor Xa = factor Xa (Homo sapiens, UniProt P00742); test: biochemical; conditions: read-out: Kass Xa (converted)
Procedure, shortened: (§2)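 Bovine trypsin and human factor Xa amidase activity measured chromogenically, following the human thrombin procedure. Substrates: N-Benzoyl-Ile-Glu-Gly-Arg-p-nitroanilide for factor Xa and N-Benzoyl-Phe-Val-Arg-p-nitroanilide for trypsin. Used for selectivity profiling.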

human or animal plasma [2] = test: Anticoagulation determination in plasma: thrombin time (TT); assay type: biochemical; conditions: concentration doubling thrombin time
Procedure, shortened: as §1

human or animal plasma [3] = test: Anticoagulation determination in plasma: prothrombin time (PT); assay type: biochemical; conditions: concentration doubling prothrombin time
Procedure, shortened: as §1

t-PA = t-PA (Homo sapiens, UniProt P00750); test: biochemical; conditions: read-out: Kass t-PA (converted)
Procedure, shortened: (§3)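 Amidase activity of human plasmin and t-PA (nt-PA single-chain; mt-PA6) was measured by a chromogenic method adapted from a thrombin assay. Substrates were H-D-Val-Leu-Lys-p-nitroanilide for plasmin and H-D-Ile-Pro-Arg-p-nitroanilide for t-PA.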

Plasmin = target: T1, Plasmin (Homo sapiens, UniProt P00747); test: biochemical; conditions: read-out: Kass Plasmin (converted)
T1 construct: Human plasmin is purchased; purchased Boehringer Mannheim, Indianapolis, Indiana
Procedure, shortened: as §3

Trypsin = target: T2, Trypsin (Bos taurus, UniProt P00760); test: biochemical; set-up: species or system Bovine; conditions: read-out: Kass Trypsin (converted)
T2 sequence (P00760 24-246): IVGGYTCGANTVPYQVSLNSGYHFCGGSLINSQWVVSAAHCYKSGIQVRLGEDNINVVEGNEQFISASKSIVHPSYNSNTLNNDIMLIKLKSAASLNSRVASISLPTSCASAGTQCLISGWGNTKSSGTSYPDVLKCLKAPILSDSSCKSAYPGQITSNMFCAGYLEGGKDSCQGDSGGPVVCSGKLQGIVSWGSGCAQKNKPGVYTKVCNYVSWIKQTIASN
Procedure, shortened: as §2
Throughout, for % oral/i.v. activity (Rat): key: NC^1 indicates screening not completed; low or very low activity obsrved at 20 mg/kg p.o; NC^2 indicates screening not completed; low or very low activity observed at 60 mg/kg p.o; NC^3 indicates screening not completed; low or very low activity observed at 50 mg/kg p.o.

Chain of factor Xa (P00742 235-488 limits assumed): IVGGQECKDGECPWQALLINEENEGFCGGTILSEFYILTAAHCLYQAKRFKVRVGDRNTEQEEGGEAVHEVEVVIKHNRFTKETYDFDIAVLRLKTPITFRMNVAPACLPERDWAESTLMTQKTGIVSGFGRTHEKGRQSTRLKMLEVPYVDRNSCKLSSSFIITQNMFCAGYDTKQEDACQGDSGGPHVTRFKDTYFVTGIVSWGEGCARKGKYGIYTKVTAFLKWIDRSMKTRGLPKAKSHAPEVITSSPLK
Chain of factor Xa (P00742 41-179 partner limits assumed): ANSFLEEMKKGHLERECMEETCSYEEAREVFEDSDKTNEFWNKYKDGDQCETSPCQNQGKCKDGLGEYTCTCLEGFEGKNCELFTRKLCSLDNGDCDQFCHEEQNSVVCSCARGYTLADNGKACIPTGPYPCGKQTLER
T1 sequence (P00747 581-810 limits assumed): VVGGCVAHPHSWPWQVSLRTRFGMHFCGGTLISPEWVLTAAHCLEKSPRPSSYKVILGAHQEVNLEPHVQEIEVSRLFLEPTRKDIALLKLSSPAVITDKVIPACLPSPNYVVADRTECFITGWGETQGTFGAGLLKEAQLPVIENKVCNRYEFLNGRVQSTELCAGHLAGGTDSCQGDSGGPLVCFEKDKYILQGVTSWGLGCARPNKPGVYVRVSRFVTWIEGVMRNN
T1 sequence (P00747 97-580 partner limits assumed): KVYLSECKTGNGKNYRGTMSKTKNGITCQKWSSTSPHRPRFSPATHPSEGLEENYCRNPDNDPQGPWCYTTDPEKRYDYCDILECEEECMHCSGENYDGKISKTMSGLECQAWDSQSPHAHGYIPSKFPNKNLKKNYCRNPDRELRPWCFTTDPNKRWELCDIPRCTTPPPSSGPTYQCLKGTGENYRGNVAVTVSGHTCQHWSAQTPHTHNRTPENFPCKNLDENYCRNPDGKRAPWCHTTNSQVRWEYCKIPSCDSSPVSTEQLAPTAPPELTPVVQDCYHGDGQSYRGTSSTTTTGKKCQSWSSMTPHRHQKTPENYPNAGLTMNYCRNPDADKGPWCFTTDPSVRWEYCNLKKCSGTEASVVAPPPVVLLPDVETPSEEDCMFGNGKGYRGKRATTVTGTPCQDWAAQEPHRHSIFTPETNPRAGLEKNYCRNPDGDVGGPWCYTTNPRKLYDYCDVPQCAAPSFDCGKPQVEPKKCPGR
Chain of t-PA (P00750 36-562): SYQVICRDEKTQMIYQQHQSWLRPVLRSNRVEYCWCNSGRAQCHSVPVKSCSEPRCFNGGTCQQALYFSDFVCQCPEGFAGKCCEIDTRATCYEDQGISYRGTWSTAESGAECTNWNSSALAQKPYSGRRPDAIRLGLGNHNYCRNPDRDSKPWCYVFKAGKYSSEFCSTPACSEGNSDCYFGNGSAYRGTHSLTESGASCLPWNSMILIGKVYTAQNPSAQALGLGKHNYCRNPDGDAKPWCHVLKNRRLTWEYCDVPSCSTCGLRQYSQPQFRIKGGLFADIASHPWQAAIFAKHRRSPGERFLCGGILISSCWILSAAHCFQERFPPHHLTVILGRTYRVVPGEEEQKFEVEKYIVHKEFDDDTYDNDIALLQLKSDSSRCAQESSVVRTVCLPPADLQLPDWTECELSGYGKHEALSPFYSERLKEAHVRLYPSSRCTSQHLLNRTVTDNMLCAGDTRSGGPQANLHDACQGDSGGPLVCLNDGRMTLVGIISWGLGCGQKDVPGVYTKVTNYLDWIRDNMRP

Compound	Kd (Human Thrombin)	Human Plasma Anticoagulation 2x Clotting time (ng/mL) APTT (human or animal plasma [1])	% oral/i.v. activity (Rat) (in vivo)	Kd (factor Xa)	Human Plasma Anticoagulation 2x Clotting time (ng/mL) TT (human or animal plasma [2])	Human Plasma Anticoagulation 2x Clotting time (ng/mL) PT (human or animal plasma [3])	Kd (t-PA)	Kd (Plasmin)	Kd (Trypsin)	bioavailability (in vivo)
Nc1ccc(CNC(=O)[C@@H]2CCCN2C(=O)[C@@H](CC2CCCCC2)NCC(=O)O)c(F)c1 [Example 64, HO2CCH2-D-Cha-Pro-4-NHCH2-3-F-C6H3NH2·HCl]	0.0667 µM	900 ng/mL	NC^3	100 µM	23 ng/mL	650 ng/mL				
N=C(N)c1ccc(CNC(=O)[C@@H]2C[C@@H]3CCCC[C@@H]3N2C(=O)[C@H]2CCCCN2)cc1 [Example 20, D-hPro-Ohi-p-NHCH2C6H4C(NH)NH2·3HCl]	0.1 µM	550 ng/mL		10 µM	62 ng/mL	600 ng/mL	130 µM	10 µM	0.0526 µM	23%
N=C(N)c1ccc(CNC(=O)[C@@H]2CCCN2C(=O)[C@@H](CC2CCCCC2)NCC(=O)O)c(F)c1 [Example 71, HO2CCH2-D-Cha-Pro-4-NHCH2-3-F-benzamidine·HCl]	0.000714 µM	89 ng/mL	NC^1		1 ng/mL	150 ng/mL			0.00417 µM	
CCS(=O)(=O)N[C@H](Cc1ccccc1)C(=O)N1[C@H](C(=O)NCc2ccc(C(=N)N)cc2)C[C@@H]2CCCC[C@@H]21 [Example 45, EtSO2-Phe-cis-Ohi-p-NHCH2C6H4C(NH)NH2·HCl]	0.00164 µM	200 ng/mL	NC^2	0.667 µM	8 ng/mL	330 ng/mL	1.3 µM	0.909 µM	0.00909 µM	
N=C(N)c1ccc(CNC(=O)[C@@H]2C[C@@H]3CCCC[C@@H]3N2C(=O)[C@@H](Cc2ccccc2)NCC(=O)O)cc1 [Example 47, HOOCCH2-D-Phe-cis-Ohi-p-NHCH2C6H4C(NH)NH2·HCl]	0.0222 µM	140 ng/mL	NC^2	25 µM	12. ng/mL	270 ng/mL	100 µM	5.56 µM	0.0122 µM	
CCS(=O)(=O)N[C@H](Cc1ccccc1)C(=O)N1CCC[C@H]1C(=O)NCCCCNC(=N)N [Example 1, EtS02-D-Phe-Pro-Agm·HCl]	0.303 µM			588 µM	250 ng/mL		12.2 µM	100 µM	2.63 µM	8%
N=C(N)c1cc(F)c(CNC(=O)[C@@H]2CCCN2C(=O)[C@@H](CC2CCCCC2)NCC(=O)O)c(F)c1 [Example 72, HO2CCH2-D-Cha-Pro-4-NHCH2-3,5-F2-benzamidine·HCl]	0.000435 µM	160 ng/mL	NC^1		1 ng/mL	160 ng/mL			0.00357 µM	
N=C(N)c1ccc(CNC(=O)[C@@H]2C[C@@H]3CCCC[C@@H]3N2C(=O)[C@@H](CC2CCCCC2)NCC(=O)O)cc1 [Example 49, HOOCCH2-D-Cha-cis-Ohi-p-NHCH2C6H4C(NH)NH2·HCl]	0.0025 µM	130 ng/mL	NC^2	0.294 µM	5 ng/mL	130 ng/mL	25 µM	1.19 µM	0.00106 µM	
CCS(=O)(=O)N[C@H](Cc1ccccc1)C(=O)N1CCC[C@H]1C(=O)NCCc1ccc(C(=N)N)cc1 [Example 26, EtSO2-D-Phe-Pro-p-NHCH2CH2-C6H4C(=NH)NH2·HCl]	0.0769 µM	870 ng/mL	NC^1	100 µM	37 ng/mL	750 ng/mL	100 µM	100 µM	4.76 µM	
O=C(O)CN[C@H](CC1CCCCC1)C(=O)N1CCC[C@H]1C(=O)NCCCC1=CCNCC1 [Example 60, HO2CCH2-D-Cha-Pro-4-NHCH2CH2CH2-3,4-dehydro-piperidine·HCl]	4.17 µM	22,200 ng/mL		> 1000 µM	3,200 ng/mL	77,700 ng/mL	> 1000 µM	> 1000 µM	33.3 µM	
O=C(O)CN[C@H](CC1CCCCC1)C(=O)N1CCC[C@H]1C(=O)NCCC1CCNCC1 [Example 54, HO2CCH2-D-Cha-Pro-4-NHCH2CH2-piperidine·HCl]	0.357 µM	3,300 ng/mL		> 1000 µM	140 ng/mL	2,200 ng/mL	> 1000 µM	100 µM	1.92 µM	
O=C(O)CN[C@H](CC1CCCCC1)C(=O)N1CCC[C@H]1C(=O)NCCC1=CCNCC1 [Example 59, HO2CCH2-D-Cha-Pro-4-NHCH2CH2-3,4-dehydro-piperidine·HCl]	0.909 µM	5,500 ng/mL		> 1000 µM	420 ng/mL	7,000 ng/mL	> 1000 µM	> 1000 µM	4.76 µM	
O=C(O)CN[C@H](CC1CCCCC1)C(=O)N1CCC[C@H]1C(=O)NCC1=CCNCC1 [Example 58, HO2CCH2-D-Cha-Pro-4-NHCH2-3,4-dehydro-piperidine·HCl]	1.67 µM	14,300 ng/mL		> 1000 µM	710 ng/mL	11,400 ng/mL	> 1000 µM	> 1000 µM	2.5 µM	
N=C(N)c1ccc(CNC(=O)[C@@H]2C[C@@H]3CCCC[C@@H]3N2C(=O)[C@@H]2NCC[C@@H]3CCCC[C@@H]32)cc1 [Example 42, D-1-Piq-cis-Ohi-p-NHCH2C6H4C(NH)NH2·2HCl]	0.0263 µM	270 ng/mL	NC^2	14.3 µM	20 ng/mL	320 ng/mL	100 µM	8.33 µM	0.0233 µM	
N=C(N)c1cccc(CNC(=O)[C@@H]2CCCN2C(=O)[C@H](N)Cc2ccccc2)c1 [Example 16, D-Phe-Pro-m-NHCH2C6H4C(NH)NH2·0.75HCl]	1.03 µM	8,600 ng/mL		196 µM	650 ng/mL	8,500 ng/mL	833 µM	588 µM	50 µM	
CCS(=O)(=O)N[C@H](Cc1ccccc1)C(=O)N1CCC[C@H]1C(=O)NCc1cccc(C(=N)N)c1 [Example 24, EtSO2-D-Phe-Pro-m-NHCH2-C6H4C(=NH)NH2·HCl]	1.28 µM	25,900 ng/mL		> 1000 µM	1,000 ng/mL	25,000 ng/mL	> 1000 µM	> 1000 µM	33.3 µM	
CCS(=O)(=O)N[C@H](Cc1ccccc1)C(=O)N1CCC[C@H]1C(=O)NCCc1ccc(NC(=N)N)cc1 [Example 35, EtSO2-D-Phe-Pro-p-NHCH2CH2C6H4CNH(NH)NH2·HCl]	11.1 µM	50,400 ng/mL		> 1000 µM	4,500 ng/mL	78,400 ng/mL	> 1000 µM	> 1000 µM	25 µM	
CCS(=O)(=O)N[C@H](Cc1ccccc1)C(=O)N1CCC[C@H]1C(=O)NCCCc1ccc(C(=N)N)cc1 [Example 30, EtSO2-D-Phe-Pro-p-NHCH2CH2CH2-C6H4C(=NH)NH2·HCl]	1.82 µM	14,000 ng/mL		50 µM	1,000 ng/mL	14,400 ng/mL	> 1000 µM	> 1000 µM	33.3 µM	
